Reference: paper PMC8621570, “Mechanistic Studies of Antibiotic Adjuvants Reducing Kidney’s Bacterial Loads upon Systemic Monotherapy” (Pharmaceutics, 2021)

Experiments:
Organ bio-distribution = type: in vivo, mouse; settings: 3 h post single S.C 12.5 mg/kg, ICR mice, organ homogenates, LC-MS
Protocol: C14(ω5)OOc10O was subjected to preliminary pharmacokinetics (PK) analysis to determine its plasma concentrations or organ bio-distribution following S.C administration to non-neutropenic pathogen-free mice. OAC quantification was performed by LC-MS as follows: blood was drawn at various time intervals and plasma was separated by centrifugation (5000 RCF, 10 min). Organs were excised and homogenized. Then, OAC was extracted from both plasma and organ homogenates by incubation with 50% acetonitrile: 50% methanol at room temperature with shaking for 30 min, and subsequent centrifugation (5000 RCF, 10 min). Supernatants were diluted two-fold in distilled water and analyzed by LC-MS (ULC ultimate 3000 DIONEX, MS BRUKER Maxis impact). Quantification was based on standard calibration curves, prepared by spiking fresh mice plasma (for PK) or water (for organ bio-distribution) with various amounts of the tested OAC (final concentrations from 2.5 to 50 µg/mL) and subjected to an identical procedure as described above.
Figure 10 Systemic efficacy studies using mouse infection models. (a,b) Data points represent colony forming unit (CFU) counts harvested from infected mice (8 and 10 mice per group, respectively). […]

12 GNB strains = type: cell-based; settings: OD measurements, mean of 12 GNB strains
Protocol: Bacteria:Escherichia coli strains: 25922 and 35218 (ATCC, Manassas, VA, USA), 14182 (clinical isolate), Ag100 and Ag100A [34] (ΔacrAB) are two K-12 isogenic mutantsand the engineered mutant ML-35p. Additional ESKAPE species tested: Klebsiella pneumoniae strains 1287 and 224 (clinical isolates), Acinetobacter baumannii ATCC strain 19606, Pseudomonas aeruginosa ATCC strains 9027 and 27853. Bacteria were grown in Luria–Bertani (LB) broth (0.5% NaCl, 0.5% yeast extract, 1% tryptone, pH = 7), except for E. coli ML-35p that was grown in tryptic-soy broth.
Peptide self-assembly was determined by static light scattering measurements as described. Hemolysis was determined by measuring hemoglobin leakage from washed human RBCs, as described. Minimal inhibitory concentration (MIC) was determined using the microdilution assay, as described. Bactericidal kinetics were determined by mixing bacteria with rifampin, OAC, or their combinations, as described. Data were obtained from three independent assays performed in duplicate.

CCCCC=CCCCCCCCC(=O)N[C@@H](CCCN)C(=O)N[C@@H](CCCN)C(=O)NCCCCCCCCCC(=O)N[C@@H](CCCN)C(N)=O [C14(ω5)OOc10O]
Concentration in liver and kidneys relative to lymph nodes, thighs, bladder, brain or spleen (Organ bio-distribution): at least 3 times | MIC, LB medium (12 GNB strains): > 50 µM
